This note sets out measurements from PubChem BioAssay AID488870 (Broad Institute, 2010).

Test [1] deals with INS-1E cytokine-induced nitrite, Griess absorbance, 48 h. Kind of test: inhibitors of cytokine-induced nitrite release, dose response, cell-based, Griess absorbance, INS-1E, dry powder, set 3 (AID 488870). For orientation: The Griess reaction detects nitrite, a stable product of nitric oxide.
Assay in test [2]: as above
The conditions noted are these: INS-1E cytokine-induced nitrite, Griess absorbance, 48 h; at 19.5 µM (top of the series).

A word on the AC50: it is the concentration at which the activity in the assay is half-maximal.

The source made the active and inactive calls.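 How the source made its calls: active means a drop in nitrite signal whose fitted half-maximal concentration is at most ten times the top tested dose; inconclusive means flat fit with 30 to 70% inhibition, or poor curve fit; inactive means the rest.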

As for `C[C@@H]1CN([C@H](C)CO)C(=O)c2cccc(NC(=O)Nc3ccccc3)c2O[C@H]1CN(C)S(=O)(=O)c1ccc(F)cc1`, in test [1], the AC50 is > 19.5 µM (inactive).
Regarding `COc1ccc(S(=O)(=O)N(C)C[C@@H]2Oc3c(NC(=O)Nc4ccccc4)cccc3C(=O)N([C@@H](C)CO)C[C@H]2C)cc1`, in test [2], the activity change, negative = inhibition is -7.93% (inactive).
In the case of `C[C@@H]1CN([C@@H](C)CO)C(=O)c2cccc(NC(=O)Nc3cccc4ccccc34)c2O[C@H]1CN(C)S(=O)(=O)c1cn(C)cn1`, the activity change, negative = inhibition in test [2] was -10.7% (inactive).
Same read-out and setting: the value for `COc1ccc(S(=O)(=O)N(C)C[C@@H]2Oc3c(NC(=O)Nc4ccc(C(F)(F)F)cc4)cccc3C(=O)N([C@@H](C)CO)C[C@H]2C)cc1` was -18.3% (inactive); that for `COc1ccc(S(=O)(=O)N(C)C[C@H]2Oc3c(NC(=O)Nc4cccc5ccccc45)cccc3C(=O)N([C@@H](C)CO)C[C@@H]2C)cc1` was -9.04% (inactive); that for `COc1ccc(S(=O)(=O)N(C)C[C@@H]2Oc3c(NC(=O)c4ccc(-c5nccs5)cc4)cccc3C(=O)N([C@@H](C)CO)C[C@H]2C)cc1` was -2.29% (inactive).
Still for that read-out and setting: the value for `COc1ccc(NC(=O)Nc2cccc3c2O[C@@H](CN(C)S(=O)(=O)c2ccc(OC)cc2)[C@H](C)CN([C@@H](C)CO)C3=O)cc1` was -3.9% (inactive); that for `C[C@@H]1CN([C@@H](C)CO)C(=O)c2cccc(NC(=O)Nc3cccc4ccccc34)c2O[C@H]1CN(C)S(=O)(=O)c1ccc2c(n1)N(C)CCO2` was -13.9% (inactive).
Turning to `Cc1ccc(S(=O)(=O)N(C)C[C@H]2Oc3c(NC(=O)Nc4cccc5ccccc45)cccc3C(=O)N([C@@H](C)CO)C[C@@H]2C)cc1`, the AC50 in test [1] is > 19.5 µM (inactive).
For the compound `COc1ccc(S(=O)(=O)N(C)C[C@@H]2Oc3c(NC(=O)Nc4ccccc4)cccc3C(=O)N([C@H](C)CO)C[C@H]2C)cc1`, the activity change, negative = inhibition in test [2] is -11% (inactive).
On the same count and under the same terms, the value for `COc1ccc(S(=O)(=O)N(C)C[C@@H]2Oc3c(NC(=O)Nc4cccc5ccccc45)cccc3C(=O)N([C@H](C)CO)C[C@@H]2C)cc1` was 3.88% (inactive); that for `COc1ccc(S(=O)(=O)N(C)C[C@@H]2Oc3c(NC(=O)c4ccncc4)cccc3C(=O)N([C@@H](C)CO)C[C@H]2C)cc1` was -12.3% (inactive); that for `COc1ccc(S(=O)(=O)N(C)C[C@@H]2Oc3c(NC(=O)Nc4ccc(F)cc4)cccc3C(=O)N([C@@H](C)CO)C[C@H]2C)cc1` was -7.65% (inactive).
On the same count and under the same terms, then `C[C@@H]1CN([C@@H](C)CO)C(=O)c2cccc(NC(=O)Nc3cccc4ccccc34)c2O[C@H]1CN(C)S(=O)(=O)c1ccc2c(c1)oc(=O)n2C`, with -7.4% (inactive); and `COc1ccc(S(=O)(=O)N(C)C[C@@H]2Oc3c(NC(=O)c4cc(C)nn4C)cccc3C(=O)N([C@@H](C)CO)C[C@H]2C)cc1`, with -2.17% (inactive); and `C[C@@H]1CN([C@@H](C)CO)C(=O)c2cccc(NC(=O)Nc3cccc4ccccc34)c2O[C@H]1CN(C)S(=O)(=O)c1ccc(Cl)cc1`, with -22.9% (inactive).
The same measure, in the same setting: then `COc1ccc(S(=O)(=O)N(C)C[C@@H]2Oc3c(NC(=O)NC(C)C)cccc3C(=O)N([C@@H](C)CO)C[C@H]2C)cc1`, with 7.35% (inactive); and `C[C@@H]1CN([C@@H](C)CO)C(=O)c2cccc(NC(=O)Nc3cccc4ccccc34)c2O[C@H]1CN(C)C(=O)Nc1ccccc1`, with -16.1% (inactive); and `C[C@@H]1CN([C@@H](C)CO)C(=O)c2cccc(NC(=O)Nc3ccc(F)cc3)c2O[C@H]1CN(C)S(=O)(=O)c1ccc(Cl)cc1`, with -9.62% (inactive).
Turning to `Cc1ccc(S(=O)(=O)N(C)C[C@@H]2Oc3c(NC(=O)Nc4ccc(F)cc4)cccc3C(=O)N([C@@H](C)CO)C[C@H]2C)cc1`, in test [2], the activity change, negative = inhibition was -6.25% (inactive).
In the case of `CNC[C@@H]1Oc2c(NC(=O)Nc3cccc4ccccc34)cccc2C(=O)N([C@@H](C)CO)C[C@H]1C`, in test [2], the activity change, negative = inhibition is 3.1% (inactive).
